Active and inactive are the calls of the source. The calls are words filed in the database; no cut-off is given here.
How the values were obtained:
HEK293 [1] = assay: Cytotoxicity against HEK293 cells at 1 to 30 uM using acetoxymethylated compound after 2 days by MTT assay; type: cell-based; settings: human, hek293, 48 h
[2] = Induction of H2S release in phosphate buffer at 100 uM at pH 7.4 followed by UV-irrdiation by methylene-blue assay; type: physicochemical; settings: pH 7.4, 100 µM, TDE = time-dependent effect
HEK293 [3] = assay: Induction of H2S release in HEK293 cells at 100 uM using acetoxymethylated compound incubated for 30 mins followed by UV photoirradiation for 5 mins by fluorescence microscopic analysis; type: functional, cell-based; settings: Homo sapiens
[4] = Induction of H2S release in phosphate buffer at 100 uM at pH 7.4 UV-irrdiated for 300 secs by fluorescence assay relative to control; type: physicochemical; settings: pH 7.4, 5 min
[5] = Stability of the compound in phosphate buffer at 100 uM at pH 7.4 under dark condition after 1 month by HPLC analysis; type: physicochemical; settings: pH 7.4, 730.5 h
HEK293 [6] = assay: Induction of H2S release in HEK293 cells at 100 uM incubated for 30 mins followed by UV photo-irradiation for 5 mins by fluorescence microscopic analysis; type: functional, cell-based; settings: Homo sapiens
[7] = Induction of H2S release in phosphate buffer at 100 uM at pH 7.4 UV-irrdiated for 400 secs by methylene-blue assay; type: physicochemical; settings: pH 7.4, 0.111111 h

Activity [2] | Activity [4] | Stability [5] | Activity [7] [µM] | Structure (SMILES) | Activity (HEK293 [1]) | Activity (HEK293 [3]) | Activity (HEK293 [6])
tde | Active | Stable |  | CC(CSCC(C)(C(=O)O)c1ccc2oc3ccccc3c(=O)c2c1)(C(=O)O)c1ccc2oc3ccccc3c(=O)c2c1 (configuration not stated) | Non-toxic | Active | 
 |  |  | 15 | CC(CSCC(C)(C(=O)O)c1cccc(C(=O)c2ccccc2)c1)(C(=O)O)c1cccc(C(=O)c2ccccc2)c1 (configuration not stated) |  |  | inactive

— ChEMBL document CHEMBL3351545, “Development of photo-controllable hydrogen sulfide donor applicable in live cells” (Bioorg Med Chem Lett, 2015)
